The target in one experiment is T1, HTU-LOX (HTU-QV variant) (Haloterrigena turkmenica, UniProt D2RU96).
T1 construct: gene Htur_0264; delta1-91, catalytic domain, N-terminus Gln92-Val; His-tag kept (pQE-30); full-length protein 308 residues, 33,829 Da
Nature of the experiment: Amplex red / horseradish peroxidase fluorometric H2O2 release assay. The conditions noted are these: inhibitor, bought as fumarate salt; 0.1 mM used as negative control; 0.1 M borate pH 8.3, 37 °C. The experiment is classed as biochemical.

For the next experiment, the target named is T2, HTU-LOX (HTU-AA variant) (Haloterrigena turkmenica, UniProt D2RU96).
T2 construct: gene Htur_0264; delta1-34, signal peptide removed, N-terminus Ala35-Ala; His-tag kept (pQE-30); full-length protein 308 residues
T2 sequence (D2RU96 35-296): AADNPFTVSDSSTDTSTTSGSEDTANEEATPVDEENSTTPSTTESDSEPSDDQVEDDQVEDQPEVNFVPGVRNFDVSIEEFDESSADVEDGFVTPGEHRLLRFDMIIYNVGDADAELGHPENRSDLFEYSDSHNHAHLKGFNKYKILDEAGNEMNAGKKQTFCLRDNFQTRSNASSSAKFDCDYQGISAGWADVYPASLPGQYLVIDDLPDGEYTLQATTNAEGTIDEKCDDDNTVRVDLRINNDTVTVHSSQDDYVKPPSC
The experiment is described as above. The format is biochemical. The conditions noted are these: 0.1 M borate pH 8.3, 37 °C; Cu2+-refolded enzyme.

Molecules are shown by their SMILES.

In the case of `N#CCCN` [3-aminopropionitrile], the “Amplex red / horseradish peroxidase fluorometric H2O2 release assay” value on HTU-LOX (HTU-QV variant) is “HTU-LOX demonstrated good sensitivity to the classical inhibitor of all LOXes—3-aminopropionitrile (BAPN)”.

Turning to `NCCc1c[nH]cn1` [histamine], at HTU-LOX (HTU-AA variant), the “Amplex red / horseradish peroxidase fluorometric H2O2 release assay” value was “Refolded proteins HTU-QV and HTU-AA exhibit activity against a wide variety of primary amines”.

The record behind these values is article PMC6452851, “Properties of a cryptic lysyl oxidase from haloarchaeon Haloterrigena turkmenica” (PeerJ, 2019).
